Test results as given in PubChem BioAssay AID2060484 (Molecular Pharmacology Branch, DTP, NCI, 2025).

Test system: SUM149PT spheroids with HUVEC/MSC, viability
Assay: Anticancer human tumor SUM149PT cell line growth inhibition [GQUAD];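 note: spheroids exposed to drugs for seven days before readout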;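 for viability, T/C: percent viability relative to DMSO vehicle control taken as 100%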
Conditions: for IC50: curve of first compound; for viability, T/C: stronger effect = lower value
Outline: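 Tumor cells were grown as complex spheroids with HUVEC endothelial cells and mesenchymal stem cells as stroma. G-quadruplex stabilizers were combined with targeted agents over half-log dilutions from near the clinical Cmax, or from 10 microM.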

[1] = second compound 0.0316 µM, first compound 0.0316 µM
[2] = second compound 0.0316 µM, first compound 0.1 µM
[3] = second compound 0.0316 µM, first compound 0.316 µM
[4] = second compound 0.0316 µM, first compound 1 µM
[5] = second compound 0.0316 µM, first compound 3.16 µM
[6] = second compound 0.0316 µM, first compound 10 µM
[7] = second compound 0.1 µM, first compound 0.0316 µM
[8] = second compound 0.1 µM, first compound 0.1 µM
[9] = second compound 0.1 µM, first compound 0.316 µM
[10] = second compound 0.1 µM, first compound 1 µM
[11] = second compound 0.1 µM, first compound 3.16 µM
[12] = second compound 0.1 µM, first compound 10 µM
[13] = second compound 0.316 µM, first compound 0.0316 µM
[14] = second compound 0.316 µM, first compound 0.1 µM
[15] = second compound 0.316 µM, first compound 0.316 µM
[16] = second compound 0.316 µM, first compound 1 µM
[17] = second compound 0.316 µM, first compound 3.16 µM
[18] = second compound 0.316 µM, first compound 10 µM
[19] = second compound 1 µM, first compound 0.0316 µM
[20] = second compound 1 µM, first compound 0.1 µM
[21] = second compound 1 µM, first compound 0.316 µM
[22] = second compound 1 µM, first compound 1 µM
[23] = second compound 1 µM, first compound 3.16 µM
[24] = second compound 1 µM, first compound 10 µM
[25] = second compound 3.16 µM, first compound 0.0316 µM
[26] = second compound 3.16 µM, first compound 0.1 µM
[27] = second compound 3.16 µM, first compound 0.316 µM
[28] = second compound 3.16 µM, first compound 1 µM
[29] = second compound 3.16 µM, first compound 3.16 µM
[30] = second compound 3.16 µM, first compound 10 µM
[31] = second compound 10 µM, first compound 0.0316 µM
[32] = second compound 10 µM, first compound 0.1 µM
[33] = second compound 10 µM, first compound 0.316 µM
[34] = second compound 10 µM, first compound 1 µM
[35] = second compound 10 µM, first compound 3.16 µM
[36] = second compound 10 µM, first compound 10 µM

For `CC1COCCN1c1cc(C2(S(C)(=N)=O)CC2)nc(-c2ccnc3[nH]ccc23)n1` (stereo not drawn) + Cc1cnc(CNC(=O)c2c(=O)c3ccc(N4CCCN(C)CC4)nc3n3c2sc2ccccc23)cn1, the IC50 (second compound 0.0316 µM) was 249 nM, the IC50 (second compound 0.1 µM) was 164 nM and the IC50 (second compound 0.316 µM) was 97.9 nM. For the same molecule, the IC50 (second compound 1 µM) was under 31.6 nM, the IC50 (second compound 3.16 µM) was under 31.6 nM and the IC50 (second compound 10 µM) was under 31.6 nM. It also gave a viability, T/C [1] of 87%, a viability, T/C [2] of 71.1% and a viability, T/C [3] of 44.9%. For the same molecule, the viability, T/C [4] was 25.8%, the viability, T/C [5] was 31.5% and the viability, T/C [6] was 17.7%. The viability, T/C [7] was 59.8%, the viability, T/C [8] was 57.9% and the viability, T/C [9] was 38.6%. For the same molecule, the viability, T/C [10] was 23.7%, the viability, T/C [11] was 36% and the viability, T/C [12] was 17.9%. The viability, T/C [13] was 57.3%, the viability, T/C [14] was 48.9% and the viability, T/C [15] was 41.4%. It also gave a viability, T/C [16] of 27.2%, a viability, T/C [17] of 29.2% and a viability, T/C [18] of 22.5%. It also gave a viability, T/C [19] of 45.9%, a viability, T/C [20] of 46% and a viability, T/C [21] of 42.9%. It also gave a viability, T/C [22] of 31.8%, a viability, T/C [23] of 37.1% and a viability, T/C [24] of 21.3%. The viability, T/C [25] was 36.9%, the viability, T/C [26] was 37.7% and the viability, T/C [27] was 36.2%. The viability, T/C [28] was 31.1%, the viability, T/C [29] was 33.7% and the viability, T/C [30] was 20.4%. For the same molecule, the viability, T/C [31] was 0.72%, the viability, T/C [32] was 0.21% and the viability, T/C [33] was 0.33%. For the same molecule, the viability, T/C [34] was 0.28%, the viability, T/C [35] was 0.77% and the viability, T/C [36] was 1.29%.

`COc1ccc([C@@H](O)c2cc(-c3ncnc4cc(N5CCOCC5)ccc34)c(F)cc2Cl)nn1` + Cc1cnc(CNC(=O)c2c(=O)c3ccc(N4CCCN(C)CC4)nc3n3c2sc2ccccc23)cn1 gave an IC50 (second compound 0.0316 µM) of 385 nM, an IC50 (second compound 0.1 µM) of 142 nM and an IC50 (second compound 0.316 µM) of 61.1 nM. For the same molecule, the IC50 (second compound 1 µM) was under 31.6 nM, the IC50 (second compound 3.16 µM) was under 31.6 nM and the IC50 (second compound 10 µM) was under 31.6 nM. The viability, T/C [1] was 88.4%, the viability, T/C [2] was 68.2% and the viability, T/C [3] was 55.8%. For the same molecule, the viability, T/C [4] was 35.8%, the viability, T/C [5] was 24.5% and the viability, T/C [6] was 18.5%. The viability, T/C [7] was 65.8%, the viability, T/C [8] was 51.8% and the viability, T/C [9] was 44.1%. The viability, T/C [10] was 25.5%, the viability, T/C [11] was 21.5% and the viability, T/C [12] was 16.3%. It also gave a viability, T/C [13] of 53%, a viability, T/C [14] of 48.2% and a viability, T/C [15] of 36%. The viability, T/C [16] was 24.5%, the viability, T/C [17] was 19.2% and the viability, T/C [18] was 14.8%. For the same molecule, the viability, T/C [19] was 43.4%, the viability, T/C [20] was 38.9% and the viability, T/C [21] was 35.4%. It also gave a viability, T/C [22] of 23.2%, a viability, T/C [23] of 19.6% and a viability, T/C [24] of 15.7%. For the same molecule, the viability, T/C [25] was 34.5%, the viability, T/C [26] was 34.1% and the viability, T/C [27] was 29.4%. The viability, T/C [28] was 20.7%, the viability, T/C [29] was 17.6% and the viability, T/C [30] was 13.3%. It also gave a viability, T/C [31] of 0.17%, a viability, T/C [32] of 1.03% and a viability, T/C [33] of 0.2%. It also gave a viability, T/C [34] of 0.32%, a viability, T/C [35] of 1.7% and a viability, T/C [36] of 1.3%.

`Cn1ncnc1[C@H]1c2n[nH]c(=O)c3cc(F)cc(c23)N[C@@H]1c1ccc(F)cc1` + Cc1cnc(CNC(=O)c2c(=O)c3ccc(N4CCCN(C)CC4)nc3n3c2sc2ccccc23)cn1 gave an IC50 (second compound 0.0316 µM) of 145 nM, an IC50 (second compound 0.1 µM) of 28.6 nM and an IC50 (second compound 0.316 µM) of 5.8 nM. It also gave an IC50 (second compound 1 µM) of under 0.999 nM, an IC50 (second compound 3.16 µM) of under 0.999 nM and an IC50 (second compound 10 µM) of under 0.999 nM. For the same molecule, the viability, T/C (second compound 0.0316 µM, first compound 0.000999 µM) was 92.1%, the viability, T/C (second compound 0.0316 µM, first compound 0.00316 µM) was 68.9% and the viability, T/C (second compound 0.0316 µM, first compound 0.00999 µM) was 77.1%. The viability, T/C [1] was 68.2%, the viability, T/C (second compound 0.0316 µM, first compound 0.0999 µM) was 50.4% and the viability, T/C [3] was 42.5%. It also gave a viability, T/C (second compound 0.1 µM, first compound 0.000999 µM) of 71.2%, a viability, T/C (second compound 0.1 µM, first compound 0.00316 µM) of 63% and a viability, T/C (second compound 0.1 µM, first compound 0.00999 µM) of 53.7%. For the same molecule, the viability, T/C [7] was 52.2%, the viability, T/C (second compound 0.1 µM, first compound 0.0999 µM) was 43.2% and the viability, T/C [9] was 40.8%. For the same molecule, the viability, T/C (second compound 0.316 µM, first compound 0.000999 µM) was 53.9%, the viability, T/C (second compound 0.316 µM, first compound 0.00316 µM) was 53.4% and the viability, T/C (second compound 0.316 µM, first compound 0.00999 µM) was 48.7%. For the same molecule, the viability, T/C [13] was 45.4%, the viability, T/C (second compound 0.316 µM, first compound 0.0999 µM) was 41.1% and the viability, T/C [15] was 41.6%. The viability, T/C (second compound 1 µM, first compound 0.000999 µM) was 47.8%, the viability, T/C (second compound 1 µM, first compound 0.00316 µM) was 48.8% and the viability, T/C (second compound 1 µM, first compound 0.00999 µM) was 38.5%. For the same molecule, the viability, T/C [19] was 41.1%, the viability, T/C (second compound 1 µM, first compound 0.0999 µM) was 38.5% and the viability, T/C [21] was 34.2%. The viability, T/C (second compound 3.16 µM, first compound 0.000999 µM) was 38.5%, the viability, T/C (second compound 3.16 µM, first compound 0.00316 µM) was 39.5% and the viability, T/C (second compound 3.16 µM, first compound 0.00999 µM) was 34.4%. For the same molecule, the viability, T/C [25] was 34.6%, the viability, T/C (second compound 3.16 µM, first compound 0.0999 µM) was 35.3% and the viability, T/C [27] was 33.4%. For the same molecule, the viability, T/C (second compound 10 µM, first compound 0.000999 µM) was 10.1%, the viability, T/C (second compound 10 µM, first compound 0.00316 µM) was 9.37% and the viability, T/C (second compound 10 µM, first compound 0.00999 µM) was 33.9%. For the same molecule, the viability, T/C [31] was 28.9%, the viability, T/C (second compound 10 µM, first compound 0.0999 µM) was 9.31% and the viability, T/C [33] was 0.26%.

In the case of `O=C(c1cc(Cc2n[nH]c(=O)c3ccccc23)ccc1F)N1CCN(C(=O)C2CC2)CC1` + Cc1cnc(CNC(=O)c2c(=O)c3ccc(N4CCCN(C)CC4)nc3n3c2sc2ccccc23)cn1, the IC50 (second compound 0.0316 µM) is reported as 9980 nM, the IC50 (second compound 0.1 µM) is reported as over 10000 nM and the IC50 (second compound 0.316 µM) is reported as 5010 nM. For the same molecule, the IC50 (second compound 1 µM) was under 31.6 nM, the IC50 (second compound 3.16 µM) was under 31.6 nM and the IC50 (second compound 10 µM) was under 31.6 nM. For the same molecule, the viability, T/C [1] was 87.6%, the viability, T/C [2] was 72.1% and the viability, T/C [3] was 83.3%. It also gave a viability, T/C [4] of 88.3%, a viability, T/C [5] of 80.2% and a viability, T/C [6] of 50%. It also gave a viability, T/C [7] of 63.6%, a viability, T/C [8] of 70.1% and a viability, T/C [9] of 65.8%. For the same molecule, the viability, T/C [10] was 66.4%, the viability, T/C [11] was 61.4% and the viability, T/C [12] was 44.5%. It also gave a viability, T/C [13] of 53.2%, a viability, T/C [14] of 58.5% and a viability, T/C [15] of 55.4%. It also gave a viability, T/C [16] of 54.5%, a viability, T/C [17] of 53.6% and a viability, T/C [18] of 44%. It also gave a viability, T/C [19] of 43%, a viability, T/C [20] of 47% and a viability, T/C [21] of 47.1%. The viability, T/C [22] was 48.4%, the viability, T/C [23] was 48.5% and the viability, T/C [24] was 42.7%. It also gave a viability, T/C [25] of 35.4%, a viability, T/C [26] of 42.2% and a viability, T/C [27] of 40.3%. For the same molecule, the viability, T/C [28] was 38.7%, the viability, T/C [29] was 39.5% and the viability, T/C [30] was 37.6%. For the same molecule, the viability, T/C [31] was 10.2%, the viability, T/C [32] was 12.1% and the viability, T/C [33] was 27.6%. For the same molecule, the viability, T/C [34] was 30.5%, the viability, T/C [35] was 22.6% and the viability, T/C [36] was 2.16%.
